Test results from patent US12305185B2, “Expression vector and method” (MOUNT SPEC I[…] LTD, priority 2018, dated 2025).

Test system: aRPE-19 human retinal pigmented epithelial cell line
Experiment: Activation and deactivation of vector constructs containing luciferase (Nano-Glo luminescence assay)
Format: cell-based
Settings: luminescence on day 7
Method: ARPE-19 cells were seeded as described above. 12-24 hours later, cells were transfected with pAAV-LTetL-luc and pAAV-LCuL-luc. Media was replaced the next day and doxycycline or cumate was added to a subset of cells (FIG. 7). The media from the cells were assayed for the expression of marker gene, luciferase, using the Nano-Glo Luciferase assay on day 4 after having a media change on day 3. The Nano-Glow luciferase assay was performed as described above.
Following the luciferase assay, media was changed in all the wells. A subset of cells activated with doxycycline and cumate were washed to deactivate the vector.
A human retinal pigmented epithelial cell line (aRPE-19) was transfected with vector constructs containing Tet or Cu regulatory sequences driving the expression of the marker gene luciferase. Twenty-four hours later, the cells were treated with or without Tet or Cu and incubated for a further 48 hours before assessing the expression of luciferase. The ability of the system to stop expression of the transgene (Luciferase) was examined by removing the Tet or Cu from the cells by washing prior to re-examining Luciferase expression. Cells without Tet or Cu were used as a control as were cells where Tet or Cu was not removed.

Structure (SMILES): CC(C)c1ccc(C(=O)O)cc1 [Cu, cumate]
- luciferase expression on addition of regulator compound (aRPE-19 cells transfected with Tet or Cu regulated luciferase vector): able to induce significant levels of luciferase expression
- luciferase expression after removal of regulator compound by washing (aRPE-19 cells, 3 days of washes): significantly less luciferase being detected
